# Earlier results as cited in US20110123622A1, “OPHTHALMIC FORMULATION AND METHOD OF MANUFACTURE THEREOF” (Inotek Pharmaceuticals Corporation, priority 2009, published 2011).
# Tested on: human exhibiting elevated intraocular pressure as a result of OHT or POAG
smiles,measurement,setting,value
"O=[N+]([O-])OC[C@H]1O[C@@H](n2cnc3c(NC4CCCC4)ncnc32)[C@H](O)[C@@H]1O [Compound A, ((2R,3S,4R,5R)-5-(6-(cyclopentylamino)-9H-purin-9-yl)-3,4-dihydroxytetrahydrofuran-2-yl)methyl nitrate]","reduction in IOP, comparison of dose groups","350 mcg and 700 mcg treatment groups, HPβCD formulation",greatest reduction in IOP
same,IOP upon a single application,"formulated 1:20 wt/wt in HPβCD, 2.5 to 700 micrograms per eye",statistically significant dose-related decrement in IOP
